Experimental data: article PMC7435928, “Preclinical Evaluation of NHS-Activated Gold Nanoparticles Functionalized with Bombesin or Neurotensin-Like Peptides for Targeting Colon and Prostate Tumours” (Molecules, 2020)
Peptide text beside a SMILES is read from it. * marks the point of attachment. DOTA = O=C(O)CN1CCN(CC(=O)O)CCN(CC(=O)*)CCN(CC(=O)O)CC1

Columns and labels:
[1] = biological target: neurotensin NTRS1, NTRS2 and NTRS3 receptors; set-up: method as in printed for the value; conditions: target receptors as in Table 3 (NTRS1, NTRS2; SR 14294 also NTRS3); not measured in this paper, ref not given; cited from earlier work
[2] = Dynamic light scattering of peptide-functionalized gold nanoparticles; assay type: physicochemical; conditions: cold peptide-functionalized AuNPs, 25 °C; for Hydrodynamic Diameter: DLS, Nano ZS, 633 nm, 90°; for Zeta Potential: DLS/zetasizer
From the text: The reaction between DOTA-peptides and NHS-activated PEG-AuNPs was monitored by detecting changes in nanoparticles size as a peptide layer is formed around nanoparticles. The initial hydrodynamic diameter of bare PEG-AuNPs was 42.56 nm, and after functionalization increased to approximately 73 nm (Figure 1). The electric potential at the boundary of the double layer (counter ions and Stern layer) of nanoparticles, also known as zeta potential is higher than −44 mV. Thus, the peptide-functionalized nanoparticles have sufficient repulsive force to anticipate a good physical stability.
The size distribution and zeta potential of cold peptide functionalized-gold nanoparticles were measured using a Nano ZS zetasizer system (Malvern Instruments, Malvern, UK). Measurement parameters were as follows: a laser wavelength of 633 nm (He-Ne), measurement angle of 90°, measurement temperature of 25 °C, and refractive index of medium n = 1.330.

HT-29 colon cancer cells = assay: Uptake and retention, rotating radioimmunoassay (LigandTracer Yellow); assay type: cell-based, human; conditions: HT-29 cells, 2–3 nmol peptide, real-time signal during incubation
Procedure: The binding kinetic (uptake and retention) of the ^68Ga-labelled peptides and peptide-functionalized gold nanoparticles we investigated using rotating radioimmunoassay. 2–3 nmol of each peptide labelled with ^68Ga was incubated on DU-145 prostate and HT-29 colon cancer cells. After uptake measurement, the radioactive medium was removed and the cells were washed with fresh DMEM-F12 medium. The cell retention is measured after this process, during each rotation of the Petri dish support the detector is measuring only the signal coming from the tracers bound to cells. The results are reported as measured signal during the time of analysis (where t = 0 min is the time of incubation), as illustrated in Figure 3. […]
The retention level is illustrated after the indicator arrows and reflects the percent of activity retained by the cells from the maximum counted during uptake, after hot medium removal and cells washing step. […]
Cells were maintained in culture according to the protocol provided by the depositor. […] Cells at passage 6–9 and were counted before seeding for experimentation by optical microscopy using a Burker-Turk counting chamber, and cell viability was assessed by the trypan blue exclusion test. […]

in vivo [3] = assay: in vivo; set-up: species or system mice; conditions: male, NU/J athymic nude, mouse, 3.81 MBq, total radioactivity, Biodistribution
Procedure: (§1) All experiments were conducted according to the guidelines of EU Directive 2010/63 approved by The Romanian National Sanitary Veterinary and Food Safety Authority (NSVFSA, approval no. 442/25.02.2019). Athymic nude male mice (NU/J, 8–10 weeks old) were obtained from The Jackson Laboratory (Bar Harbor, ME, USA). Animals were housed in ventilated cages with a 12-h light-dark cycle and receive food and water ad libitum. Colon/prostate tumours were induced 7–10 days prior the experiments by a subcutaneous injection of 1 × 10^6 HT-29/DU-145 cancer cells. All injected animals were monitored daily until an ideal size of tumour for biodistribution was reached (60–100 mm^3). 3.81 ± 0.51 MBq of ^68Ga-labelled tracers were retro-orbital injected into the ophthalmic venous sinus after intraperitoneal anesthesia with 0.1 mL ketamine/xylazine/acepromazine cocktail: 7.5 mg/mL ketamine (Narkamon Bio, Bioveta, Cluj-Napoca, Romania), 1.5 mg/mL xylazine (Narcoxyl 2, MSD Animal Health, Madison, NJ, USA) and 0.25 mg/mL acepromazine (Sedam, SC Pasteur Filiala Filipesti SRL, Filipestii de Padure, Romania). All animals were sacrificed at 30 min p.i. and the organs were weighted and measured in a dose calibrator (Biodex Medical Systems Inc., Shirley, NY, USA). The biodistribution was calculated as percent of injected dose per gram of organ (% ID/g) ± standard deviation (SD, n = 4 for each injected tracer).
(§2) All the data were expressed as means ± standard deviation (n = 4). Comparison of results among the groups (% ID/g vs. tracers, % ID/g vs. tracers and organs, % ID/g vs. tracers and tumoral cells), was carried out by one-way analysis of variance (ANOVA) and Tukey post-hoc analysis using SPSS v26 (IBM, Armonk, NY, USA) The results were considered significant for a p-value less than 0.05.

in vivo [4] = assay: in vivo; set-up: species or system mice; conditions: male, NU/J athymic nude, mouse, 3.81 MBq, total radioactivity, Biodistribution; remark: listed apart in the source
Procedure: as §1, §2

[5] = tested on: human prostate carcinoma DU-145 cells; assay: MTS reduction test (cytotoxicity); conditions: free peptides 1–4 nmol/mL, 48 h, triplicate
Procedure: (§4) The MTS reduction test was used to evaluate the number of metabolically active cells in culture, under various experimental conditions.
(§5) Briefly, cells were cultivated in 96-well plates (3 × 10^4 CRL9855 cells/mL, 10 × 10^4 HT-29 cells/mL and 5 × 10^4 DU-145 cells/mL) in a total volume of 100 μL. Adherent cells were left for 24 h to adhere to the culture well. Thereafter, NPs and peptides were added at various concentrations and cells were cultivated for 48 h. Non-treated cells were considered as control (CTRL). For background assessment culture medium, NPs and peptides were cultivated in absence of cells, considering that NPs might interfere with the spectrophotometric measurement. All samples were cultivated in triplicate. At the end of the incubation time, 20 μL of MTS reagent were added and samples were cultivated for another 1–3 h until the reaction color was developed. The OD at 490 nm was measured in each sample using a Tecan Sunrise ELISA reader with Magellan universal reader control and data analysis software (Tecan Group Ltd., Mannedorf, Switzerland). Final OD in cellular samples was calculated by subtracting the OD of the corresponding background samples.

[6] = tested on: human colon carcinoma HT-29 cells; assay: MTS reduction test (cytotoxicity); conditions: free peptides 1–4 nmol/mL, 48 h, triplicate
Procedure: as §4, §5

[7] = tested on: human proliferating CRL9855 monocytes; assay: MTS reduction test (cytotoxicity); conditions: free peptides 1–4 nmol/mL, 48 h, triplicate
Procedure: as §4, §5

[8] = tested on: prostate tumour bearing mice; conditions: 60 min p.i.; cited from earlier work
Procedure: (§3) Several tracers have been developed to target and facilitate the molecular imaging of colon or prostate cancer, such as: ^68Ga-NGR with over 2.7 ± 0.65% ID/g in colon tumour at 30 min p.i., [^18F]FDG with 2.5 ± 0.5% ID/g [^18F]FDG in colon tumours, [^18F]fluorocholine (FCH) with 7.9 ± 5% ID/g at 60 min p.i. in prostate tumour bearing mice. Compared to these, the values obtained for tumour uptake using the four studied nanotracers are between 2.53 ± 0.26% ID/g for ^68Ga-DOTA-NMN-AuNP to 9.82 ± 2.28% ID/g for ^68Ga-DOTA-PEG(4)-BBN(7-14)-AuNP in colon tumours and 2.79 ± 0.4% ...

colon tumour = conditions: in vivo; cited from earlier work
Procedure: as §3

Compound: COc1cccc(OC)c1-c1cc(C(=O)NC2(C(=O)O)C3CC4CC(C3)CC2C4)nn1-c1ccc(C(=O)N(C)CCCN(C)C)cc1C(C)C (centres unmarked) [SR 14294]
- Kd [1]: 0.01 µM

Compound: DOTA-NMN-AuNP: cold DOTA-neuromedin N-functionalized gold nanoparticles
- Hydrodynamic Diameter [2]: 73.29 nm
- Zeta Potential [2]: −49.6 mV

Compound: ^68Ga-DOTA-NMB-AuNP: NHS-activated PEG-gold nanoparticles functionalized with ^68Ga-DOTA-Neuromedin B
- Uptake profile (HT-29 colon cancer cells): up and down trend

Compound: DOTA-NMB-AuNP: cold DOTA-neuromedin B-functionalized gold nanoparticles
- Hydrodynamic Diameter [2]: 72.18 nm
- Zeta Potential [2]: −47.3 mV

Compound: ^68Ga-DOTA-NT-AuNP: NHS-activated PEG-gold nanoparticles functionalized with ^68Ga-DOTA-NT
- Hydrodynamic Diameter [2]: 72.36 nm

Compound: CC[C@H](C)[C@H](NC(=O)[C@H](Cc1ccc(O)cc1)NC(=O)[C@@H]1CCCN1C(=O)[C@@H](NC(=O)[C@H](CCCCN)NC(=O)CN1CCN(CC(=O)O)CCN(CC(=O)O)CCN(CC(=O)O)CC1)[C@@H](C)CC)C(=O)N[C@@H](CC(C)C)C(=O)O [^68Ga-DOTA-NMN, metal not drawn] ({DOTA}-KIPYIL-OH; C-terminus assumed)
- tissue uptake at 0.5 h (in vivo [3]; Bone): 0.16 ± 0.02 %ID/g
- tissue uptake at 0.5 h (in vivo [3]; Brain): 0.04 ± 0.01 %ID/g
- tissue uptake at 0.5 h (in vivo [3]; Heart): 1 ± 0.42 %ID/g
- tissue uptake at 0.5 h (in vivo [3]; Kidneys): 21.1 ± 1.97 %ID/g
- tissue uptake at 0.5 h (in vivo [3]; Lungs): 2.37 ± 0.77 %ID/g
- tissue uptake at 0.5 h (in vivo [3]; Lymph Node): 0.39 ± 0.05 %ID/g
- tissue uptake at 0.5 h (in vivo [3]; Spleen): 0.35 ± 0.02 %ID/g
- tissue uptake at 0.5 h (in vivo [3]; Tumour (colon)): 2.02 ± 0.02 %ID/g
- tissue uptake at 0.5 h (in vivo [4]; Heart): 0.99 ± 0.26 %ID/g
- tissue uptake at 0.5 h (in vivo [4]; Kidneys): ~60 %ID/g
- tissue uptake at 0.5 h (in vivo [4]; Lungs): 2.37 ± 0.5 %ID/g
- tissue uptake at 0.5 h (in vivo [4]; Pancreas): 0.58 ± 0.02 %ID/g
- tissue uptake at 0.5 h (in vivo [4]; Tumour (prostate)): 1.77 ± 0.5 %ID/g

Compound: CSCC[C@H](NC(=O)[C@H](Cc1ccccc1)NC(=O)[C@H](Cc1c[nH]cn1)NC(=O)CNC(=O)[C@@H](NC(=O)[C@H](C)NC(=O)[C@H](Cc1c[nH]c2ccccc12)NC(=O)[C@H](CC(C)C)NC(=O)[C@H](CC(N)=O)NC(=O)CNC(=O)CN1CCN(CC(=O)O)CCN(CC(=O)O)CCN(CC(=O)O)CC1)[C@@H](C)O)C(N)=O [^68Ga-DOTA-NMB, metal not drawn]
- tissue uptake at 0.5 h (in vivo [3]; Bone): 0.1 ± 0.07 %ID/g
- tissue uptake at 0.5 h (in vivo [3]; Tumour (colon)): 1.73 ± 0.08 %ID/g
- tissue uptake at 0.5 h (in vivo [4]; Pancreas): 1.36 ± 0.07 %ID/g
- tissue uptake at 0.5 h (in vivo [4]; Tumour (prostate)): 2.54 ± 0.42 %ID/g

Compound: CSCC[C@H](NC(=O)[C@H](CC(C)C)NC(=O)[C@H](Cc1c[nH]cn1)NC(=O)CNC(=O)[C@@H](NC(=O)[C@H](C)NC(=O)[C@H](Cc1c[nH]c2ccccc12)NC(=O)[C@H](CCC(N)=O)NC(=O)CCOCCOCCOCCOCCNC(=O)CN1CCN(CC(=O)O)CCN(CC(=O)O)CCN(CC(=O)O)CC1)C(C)C)C(N)=O [^68Ga-DOTA-PEG(4)-BBN(7-14), metal not drawn]
- tissue uptake at 0.5 h (in vivo [3]; Blood): 6.42 ± 0.27 %ID/g
- tissue uptake at 0.5 h (in vivo [3]; Bone): 0.75 ± 0.06 %ID/g
- tissue uptake at 0.5 h (in vivo [3]; Kidneys): 18.7 ± 0.67 %ID/g
- tissue uptake at 0.5 h (in vivo [3]; Lymph Node): 1.1 ± 0.45 %ID/g
- tissue uptake at 0.5 h (in vivo [3]; Tumour (colon)): 3.31 ± 0.76 %ID/g
- tissue uptake at 0.5 h (in vivo [4]; Blood): 6.48 ± 1.53 %ID/g
- tissue uptake at 0.5 h (in vivo [4]; Kidneys): 18 ± 3.78 %ID/g
- tissue uptake at 0.5 h (in vivo [4]; Tumour (prostate)): 3.78 ± 0.27 %ID/g

Compound: COc1cccc(OC)c1-c1cc(C(=O)NC2(C(=O)O)C3CC4CC(C3)CC2C4)nn1-c1ccnc2cc(Cl)ccc12 (centres unmarked) [SR 48692]
- Kd [1]: 0.015 µM

Compound: CSCC[C@H](NC(=O)[C@H](Cc1ccccc1)NC(=O)[C@H](Cc1c[nH]cn1)NC(=O)CNC(=O)[C@@H](NC(=O)[C@H](C)NC(=O)[C@H](Cc1c[nH]c2ccccc12)NC(=O)[C@H](CC(C)C)NC(=O)[C@H](CC(N)=O)NC(=O)CNC(=O)CN1CCN(CC(=O)O)CCN(CC(=O)O)CCN(CC(=O)O)CC1)[C@@H](C)O)C(N)=O [DOTA-NMB]
- Effect on MTS reduction [5]: do not alter MTS reduction
- Effect on MTS reduction [6]: do not alter MTS reduction
- Effect on MTS reduction [7]: do not alter MTS reduction

Compound: C[N+](C)(CF)CCO [[^18F]fluorocholine (FCH), [^18F]fluorocholine]
- Tumour uptake [8]: 7.9 ± 5 % ID/g

Compound: DOTA-NT-AuNP: cold DOTA-neurotensin-functionalized gold nanoparticles
- Hydrodynamic Diameter [2]: 72.36 nm
- Zeta Potential [2]: −44.4 mV

Compound: [^18F]FDG
- Tumour uptake (colon tumour): 2.5 ± 0.5 % ID/g

Compound: Cc1ccc(S(=O)(=O)Nc2ccc3c(c2)c(C(=O)C(F)(F)F)cn3CC(=O)N[C@@H](CC(C)C)C(=O)O)cc1 [NTRC 824]
- Kd [1]: 0.038 µM
